For 4 compounds, % of control and % of inhibition results are on record in ChEMBL document CHEMBL5465560, “Selectivity Literature for EUbOPEN Chemogenomic Library” (2024).

Assay [1] deals with T1, Mitogen-activated protein kinase kinase kinase 6 (Homo sapiens) (UniProt O95382).
T1 sequence (whole entry): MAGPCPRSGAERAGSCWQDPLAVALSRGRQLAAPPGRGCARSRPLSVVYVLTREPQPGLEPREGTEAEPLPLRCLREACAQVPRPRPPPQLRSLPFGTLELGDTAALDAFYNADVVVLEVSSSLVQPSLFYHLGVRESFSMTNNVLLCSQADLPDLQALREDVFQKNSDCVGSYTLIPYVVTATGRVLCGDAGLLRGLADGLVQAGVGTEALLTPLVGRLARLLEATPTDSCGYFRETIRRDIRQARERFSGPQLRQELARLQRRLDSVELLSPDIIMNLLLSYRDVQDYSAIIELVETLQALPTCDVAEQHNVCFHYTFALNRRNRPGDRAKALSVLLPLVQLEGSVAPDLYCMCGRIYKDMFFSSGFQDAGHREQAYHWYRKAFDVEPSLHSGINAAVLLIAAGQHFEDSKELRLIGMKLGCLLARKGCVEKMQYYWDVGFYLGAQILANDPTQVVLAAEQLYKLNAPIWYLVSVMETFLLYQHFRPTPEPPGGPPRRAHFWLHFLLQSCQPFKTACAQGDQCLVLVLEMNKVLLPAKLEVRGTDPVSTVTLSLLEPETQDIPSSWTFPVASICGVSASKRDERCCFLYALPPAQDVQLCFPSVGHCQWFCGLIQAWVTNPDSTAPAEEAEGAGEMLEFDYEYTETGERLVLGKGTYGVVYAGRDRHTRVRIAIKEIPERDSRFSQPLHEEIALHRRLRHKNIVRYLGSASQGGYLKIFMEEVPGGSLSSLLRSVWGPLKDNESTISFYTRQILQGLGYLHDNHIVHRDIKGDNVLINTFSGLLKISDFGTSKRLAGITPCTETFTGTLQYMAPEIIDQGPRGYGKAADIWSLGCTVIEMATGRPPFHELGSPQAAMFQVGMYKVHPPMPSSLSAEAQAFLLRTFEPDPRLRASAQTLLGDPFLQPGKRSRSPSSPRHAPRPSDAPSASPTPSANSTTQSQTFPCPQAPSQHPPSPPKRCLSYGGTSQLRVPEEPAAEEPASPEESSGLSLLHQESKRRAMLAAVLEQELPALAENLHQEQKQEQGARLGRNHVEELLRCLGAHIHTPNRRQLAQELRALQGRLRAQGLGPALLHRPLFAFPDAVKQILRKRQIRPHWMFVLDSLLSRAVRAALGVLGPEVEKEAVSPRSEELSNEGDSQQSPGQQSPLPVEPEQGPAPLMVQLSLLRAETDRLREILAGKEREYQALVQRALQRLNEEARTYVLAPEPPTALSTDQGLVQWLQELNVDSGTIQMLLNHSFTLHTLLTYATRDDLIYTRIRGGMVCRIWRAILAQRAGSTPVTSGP
Briefly: Selectivity interaction (Ambit KINOMEscan and KiNATiv profiling in Jurkat cells) EUB0000090b MAP3K6. As to conditions: at 1 µM. The assay is classed as cell-based.

Assay [2] addresses Tyrosine-protein kinase Fer (Homo sapiens) (UniProt P16591). Briefly: Selectivity interaction (KinomeScan (DiscoverX)) EUB0000607a FER. The conditions noted are these: at 10 µM.
The target of assay [3] is Serine/threonine-protein kinase mTOR (Homo sapiens, UniProt P42345). Description: Selectivity interaction (KinomeScan (DiscoverX)) EUB0000607a MTOR. As to conditions: at 10 µM.
The target of assay [4] is T2, Serine/threonine-protein kinase BRSK1 (Homo sapiens) (UniProt Q8TDC3).
T2 sequence (whole entry): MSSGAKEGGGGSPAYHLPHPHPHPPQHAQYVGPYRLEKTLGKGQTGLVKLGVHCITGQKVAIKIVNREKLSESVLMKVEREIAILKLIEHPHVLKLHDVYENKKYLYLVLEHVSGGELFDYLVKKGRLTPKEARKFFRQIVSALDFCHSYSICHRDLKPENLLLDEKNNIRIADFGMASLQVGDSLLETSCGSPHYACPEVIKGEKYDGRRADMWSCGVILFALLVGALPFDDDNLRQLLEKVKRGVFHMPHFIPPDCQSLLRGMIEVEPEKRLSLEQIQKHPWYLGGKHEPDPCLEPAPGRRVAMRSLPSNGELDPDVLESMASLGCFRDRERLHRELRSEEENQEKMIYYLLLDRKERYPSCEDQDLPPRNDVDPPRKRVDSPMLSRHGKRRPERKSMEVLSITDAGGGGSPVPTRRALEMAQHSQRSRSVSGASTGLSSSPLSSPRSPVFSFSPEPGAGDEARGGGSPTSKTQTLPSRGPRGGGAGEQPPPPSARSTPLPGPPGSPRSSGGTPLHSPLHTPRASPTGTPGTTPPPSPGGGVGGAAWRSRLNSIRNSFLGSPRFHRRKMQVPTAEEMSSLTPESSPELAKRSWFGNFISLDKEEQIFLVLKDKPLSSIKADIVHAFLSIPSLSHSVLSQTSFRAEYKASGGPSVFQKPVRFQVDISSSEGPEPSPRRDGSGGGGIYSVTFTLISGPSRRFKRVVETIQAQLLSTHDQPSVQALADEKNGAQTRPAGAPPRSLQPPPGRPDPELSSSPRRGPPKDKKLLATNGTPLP
Description: Selectivity interaction (KinomeScan (DiscoverX)) EUB0000045b BRSK1.

The target in assay [5] is Proto-oncogene tyrosine-protein kinase Src (Homo sapiens, UniProt P12931). Description: Selectivity interaction (Upstate Kinase Profiler service (Millipore)) EUB0000056c SRC. The conditions noted are these: at 1 µM.
The target of assay [6] is T3, Protein kinase C epsilon type (Homo sapiens) (UniProt Q02156).
T3 sequence (whole entry): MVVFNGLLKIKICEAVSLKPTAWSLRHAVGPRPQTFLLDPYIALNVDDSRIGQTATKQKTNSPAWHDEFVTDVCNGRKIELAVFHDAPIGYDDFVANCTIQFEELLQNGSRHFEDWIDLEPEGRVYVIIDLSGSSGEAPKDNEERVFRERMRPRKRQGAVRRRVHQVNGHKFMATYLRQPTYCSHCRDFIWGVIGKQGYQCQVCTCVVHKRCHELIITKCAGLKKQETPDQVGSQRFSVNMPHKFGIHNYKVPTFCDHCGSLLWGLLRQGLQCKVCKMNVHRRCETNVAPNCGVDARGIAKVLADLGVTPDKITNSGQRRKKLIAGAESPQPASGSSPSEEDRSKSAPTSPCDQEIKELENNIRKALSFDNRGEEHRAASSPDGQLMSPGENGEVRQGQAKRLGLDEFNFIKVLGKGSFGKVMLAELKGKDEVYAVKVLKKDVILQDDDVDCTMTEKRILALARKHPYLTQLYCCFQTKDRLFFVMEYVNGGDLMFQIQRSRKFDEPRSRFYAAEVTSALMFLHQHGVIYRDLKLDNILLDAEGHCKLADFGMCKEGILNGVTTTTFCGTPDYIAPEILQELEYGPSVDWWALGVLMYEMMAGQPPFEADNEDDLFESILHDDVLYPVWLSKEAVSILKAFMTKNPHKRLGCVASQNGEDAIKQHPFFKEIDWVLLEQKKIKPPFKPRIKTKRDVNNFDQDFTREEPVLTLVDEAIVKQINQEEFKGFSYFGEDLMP
Briefly: Selectivity interaction (Upstate Kinase Profiler service (Millipore)) EUB0000056c PRKCE. As to conditions: at 1 µM.

Sequence of Proto-oncogene tyrosine-protein kinase Src (P12931 2-536 limits assumed): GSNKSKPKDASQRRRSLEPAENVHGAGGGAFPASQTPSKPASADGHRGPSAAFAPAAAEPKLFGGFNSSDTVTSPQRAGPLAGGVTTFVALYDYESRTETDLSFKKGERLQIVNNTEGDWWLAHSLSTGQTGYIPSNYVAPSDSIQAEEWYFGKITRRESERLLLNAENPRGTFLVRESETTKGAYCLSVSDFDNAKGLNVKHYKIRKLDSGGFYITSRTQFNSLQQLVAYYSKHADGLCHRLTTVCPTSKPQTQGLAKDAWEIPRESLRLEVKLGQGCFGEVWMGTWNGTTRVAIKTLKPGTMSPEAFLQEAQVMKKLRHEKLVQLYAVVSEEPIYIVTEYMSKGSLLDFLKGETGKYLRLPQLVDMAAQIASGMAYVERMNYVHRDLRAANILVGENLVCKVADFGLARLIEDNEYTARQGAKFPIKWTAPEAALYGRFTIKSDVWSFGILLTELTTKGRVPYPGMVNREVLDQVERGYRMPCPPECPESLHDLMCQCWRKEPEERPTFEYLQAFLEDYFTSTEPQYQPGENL
Sequence of Tyrosine-protein kinase Fer (Homo sapiens) (P16591 whole entry, looked up): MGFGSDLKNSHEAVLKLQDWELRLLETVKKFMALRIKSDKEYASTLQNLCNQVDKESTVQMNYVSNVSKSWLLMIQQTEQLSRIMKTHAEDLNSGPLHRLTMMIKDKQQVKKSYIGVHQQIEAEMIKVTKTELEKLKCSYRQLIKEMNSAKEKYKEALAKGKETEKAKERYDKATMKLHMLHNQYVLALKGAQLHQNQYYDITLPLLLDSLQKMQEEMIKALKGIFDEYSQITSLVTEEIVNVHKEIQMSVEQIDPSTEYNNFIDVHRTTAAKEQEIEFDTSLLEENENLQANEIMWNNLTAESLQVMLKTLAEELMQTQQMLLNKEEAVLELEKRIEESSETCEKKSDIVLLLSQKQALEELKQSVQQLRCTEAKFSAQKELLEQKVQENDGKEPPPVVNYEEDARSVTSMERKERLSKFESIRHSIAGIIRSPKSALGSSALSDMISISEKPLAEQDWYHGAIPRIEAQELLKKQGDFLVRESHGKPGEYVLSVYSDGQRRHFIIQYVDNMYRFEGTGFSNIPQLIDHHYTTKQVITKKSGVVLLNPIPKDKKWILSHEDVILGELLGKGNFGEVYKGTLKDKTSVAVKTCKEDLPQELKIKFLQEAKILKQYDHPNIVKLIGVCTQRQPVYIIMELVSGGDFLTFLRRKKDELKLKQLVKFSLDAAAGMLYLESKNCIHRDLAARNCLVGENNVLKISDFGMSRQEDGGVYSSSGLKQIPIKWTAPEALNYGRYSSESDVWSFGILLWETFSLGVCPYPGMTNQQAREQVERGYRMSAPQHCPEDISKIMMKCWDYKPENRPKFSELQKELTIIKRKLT

In assay [1], `CN(C)C/C=C/C(=O)Nc1ccc(C(=O)N2CCCC(Nc3ncc(Cl)c(-c4c[nH]c5ccccc45)n3)C2)cc1` (configuration not stated) came in with a % of control of 100%.

For `CNC(=O)Nc1ccc(-c2nc(N3CC4CCC(C3)O4)c3cnn(C4CCC5(CC4)OCCO5)c3n2)cc1`, the % of control in assay [2] came to 100%; in assay [3] it was 5.7%.

Regarding `C=CC(=O)Nc1cc(-n2c(=O)ccc3cnc4ccc(-c5ccc(NS(C)(=O)=O)cc5)cc4c32)ccc1C`, the values for the % of control in assay [4] (at 1 µM) and in assay [4] (at 10 µM) were 100% and 97%, respectively.

In the case of `Cc1ccc(-c2ccc3c(ccc4sc5c(c43)NC[C@@H](C)NC5=O)n2)cn1`, the % of inhibition in assay [5] was found to be 12%; in assay [6], 8%.
